Earlier results on one molecule are cited in US11123365B2, “Compositions comprising palmitoylethanolamide and hydrogen water, and methods thereof” (Perricone Hydrogen Water Company, LLC, priority 2019, dated 2021).

Molecules are shown by their SMILES.

As for `CCCCCCCCCCCCCCCC(=O)NCCO` [palmitoylethanolamide], the solubility in water entry was “less than 20 mM”.
